Reference: patent publication US7138361B2, “Herbicidal heterocycles” (E. I. du Pont de Nemours and Company, priority 2000, dated 2006)

Key:
Format in all cases: in vivo
[1] = system: barnyardgrass (Echinochloa crus-galli); assay: Test C flooded paddy test; conditions: for Plant response rating, Barnyardgrass: scale 0 to 100 (0 no effect, 100 complete control)
Summary of the method: (§1)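 Rice and three paddy weeds were grown to the 2-leaf stage under flooded conditions, then treated and kept in a greenhouse for 12–14 days. Response was rated visually against untreated controls on a 0–100 scale, where 100 is complete control.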

[2] = system: smallflower flatsedge (Cyperus difformis); assay: Test C flooded paddy test; conditions: for Plant response rating, Flatsedge: scale 0 to 100 (0 no effect, 100 complete control)
Summary of the method: as §1

[3] = system: duck salad (Heteranthera limosa); assay: Test C flooded paddy test; conditions: for Plant response rating, Ducksalad: scale 0 to 100 (0 no effect, 100 complete control)
Summary of the method: as §1

[4] = system: rice (Oryza saliva); assay: Test C flooded paddy test; conditions: for Plant response rating, Rice: scale 0 to 100 (0 no effect, 100 complete control)
Summary of the method: as §1

[5] = system: lambsquarters (Chenopodium album); assay: Test B preemergence
Summary of the method: (§2)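 Greenhouse test: chemicals are formulated in a surfactant-containing non-phytotoxic solvent and applied either preemergence to planted seeds or postemergence to plants 2 to 18 cm tall. Response is rated visually versus controls after 13 to 15 days, 0 meaning no effect and 100 complete control.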

[6] = system: corn (Zea mays); assay: Test B preemergence
Summary of the method: as §2

[7] = system: barnyardgrass (Echinochloa crus-galli); assay: Test B preemergence
Summary of the method: as §2

[8] = system: velvetleaf (Abutilon theophrasti); assay: Test B preemergence
Summary of the method: as §2

[9] = system: giant foxtail (Setaria faberii); assay: Test B preemergence
Summary of the method: as §2

[10] = system: crabgrass (Digitaria sanguinalis); assay: Test B preemergence
Summary of the method: as §2

[11] = system: cocklebur (Xanthium strumarium); assay: Test B preemergence
Summary of the method: as §2

[12] = system: morning glory (Ipomoea hederacea); assay: Test B preemergence
Summary of the method: as §2

[13] = system: pigweed (Amaranthus retroflexus); assay: Test B preemergence
Summary of the method: as §2

[14] = system: Surinam grass (Brachiaria decumbens); assay: Test B preemergence
Summary of the method: as §2

[15] = system: rice (Oryza saliva); assay: Test B preemergence
Summary of the method: as §2

[16] = system: blackgrass (Alopecurus myosuroides); assay: Test B postemergence
Summary of the method: as §2

[17] = system: lambsquarters (Chenopodium album); assay: Test B postemergence
Summary of the method: as §2

[18] = system: corn (Zea mays); assay: Test B postemergence
Summary of the method: as §2

[19] = system: barnyardgrass (Echinochloa crus-galli); assay: Test B postemergence
Summary of the method: as §2

[20] = system: wild oat (Avena fatua); assay: Test B postemergence
Summary of the method: as §2

[21] = system: velvetleaf (Abutilon theophrasti); assay: Test B postemergence
Summary of the method: as §2

[22] = system: wheat (Triticum aestivum); assay: Test B postemergence
Summary of the method: as §2

[23] = system: giant foxtail (Setaria faberii); assay: Test B postemergence
Summary of the method: as §2

[24] = system: crabgrass (Digitaria sanguinalis); assay: Test B postemergence
Summary of the method: as §2

[25] = system: cocklebur (Xanthium strumarium); assay: Test B postemergence
Summary of the method: as §2

[26] = system: morning glory (Ipomoea hederacea); assay: Test B postemergence
Summary of the method: as §2

[27] = system: pigweed (Amaranthus retroflexus); assay: Test B postemergence
Summary of the method: as §2

[28] = system: Surinam grass (Brachiaria decumbens); assay: Test B postemergence
Summary of the method: as §2

[29] = Flooded Paddy, Rate 500 g/ha, scale 0 to 100, 0 no effect, 100 complete control
[30] = flooded paddy test, Rate 125 g/ha
[31] = flooded paddy test, Rate 250 g/ha
[32] = flooded paddy test, Rate 62 g/ha, visually evaluated after 12 to 14 days, 0 = no effect, 100 = complete control
[33] = Preemergence, Rate 500 g/ha, scale 0 to 100, 0 no effect, 100 complete control
[34] = preemergence, Rate 125 g/ha, scale of 0 to 100 where 0 is no effect and 100 is complete control, 13 to 15 days
[35] = Rate 125 g/ha, scale 0 to 100, 0 no effect, 100 complete control
[36] = Rate 500 g/ha, scale 0 (no effect) to 100 (complete control), 13 to 15 days

COc1cc(C)nc(N2CCC(n3ccc(C(C)(C)C)n3)C2=O)n1 (stereo not shown) [Compound 137]
30: Plant response rating, Rice [15, 34]
40: Plant response rating, Barnyardgrass [7, 33]
0: Barnyardgrass plant response rating [1, 29] | Plant response rating, Barnyardgrass [1, 30] | Plant response rating, Barnyardgrass [1, 31] | Plant response rating (scale 0 to 100), Barnyardgrass [1, 32] | Flatsedge plant response rating [2, 29] | Plant response rating, Flatsedge [2, 30] | Plant response rating, Flatsedge [2, 31] | Plant response rating (scale 0 to 100), Flatsedge [2, 32] | Ducksalad plant response rating [3, 29] | Plant response rating, Ducksalad [3, 30] | Plant response rating, Ducksalad [3, 31] | Plant response rating (scale 0 to 100), Ducksalad [3, 32] | Rice plant response rating [4, 29] | Plant response rating, Rice [4, 30] | Plant response rating, Rice [4, 31] | Plant response rating (scale 0 to 100), Rice [4, 32] | Plant response rating, Lambsquarters [5, 33] | Plant response rating, Lambsquarters [5, 34] | Plant response rating, Corn [6, 33] | Plant response rating, Corn [6, 34] | Plant response rating, Barnyardgrass [7, 34] | Plant response rating, Velvetleaf [8, 34] | Plant response rating, Foxtail, Giant [9, 33] | Plant response rating, Foxtail, Giant [9, 34] | Plant response rating, Crabgrass [10, 34] | Plant response rating, Cocklebur [11, 34] | Plant response rating, Morningglory [12, 33] | Plant response rating, Morningglory [12, 34] | Plant response rating, Pigweed [13, 33] | Plant response rating, Pigweed [13, 34] | Plant response rating, Surinam grass [14, 34] | Plant response rating, Blackgrass [16, 35] | Plant response rating, Blackgrass [16, 36] | Plant response rating, Lambsquarters [17, 35] | Plant response rating, Lambsquarters [17, 36] | Plant response rating, Corn [18, 35] | Plant response rating, Corn [18, 36] | Plant response rating, Barnyardgrass [19, 35] | Plant response rating, Barnyardgrass [19, 36] | Plant response rating, Wild Oat [20, 35] | Plant response rating, Wild Oat [20, 36] | Plant response rating, Velvetleaf [21, 35] | Plant response rating, Velvetleaf [21, 36] | Plant response rating, Wheat [22, 35] | Plant response rating, Wheat [22, 36] | Plant response rating, Foxtail, Giant [23, 35] | Plant response rating, Crabgrass [24, 35] | Plant response rating, Crabgrass [24, 36] | Plant response rating, Cocklebur [25, 35] | Plant response rating, Cocklebur [25, 36] | Plant response rating, Morningglory [26, 35] | Plant response rating, Morningglory [26, 36] | Plant response rating, Pigweed [27, 35] | Plant response rating, Pigweed [27, 36] | Plant response rating, Surinam grass [28, 35] | Plant response rating, Surinam grass [28, 36]
50: Plant response rating, Surinam grass [14, 33]
90: Plant response rating, Foxtail, Giant [23, 36]
70: Plant response rating, Rice [15, 33]
80: Plant response rating, Velvetleaf [8, 33] | Plant response rating, Crabgrass [10, 33] | Plant response rating, Cocklebur [11, 33]
